# Experiments:
# [1] = Inhibition of TNF-induced NF-kappaB activation in human A549 cells after 15 hrs; details: Homo sapiens, A549, 15 h, read-out: pIC50 (converted)
# A549 = experiment: Inhibition of TNF-induced NFkappaB activation in human A549 cells after 15 hrs relative to Dexamethasone; type: cell-based; set-up: scale not given: the % may be the effect or the level left
# Cytochrome P450 1A2 = molecular target: T1, Cytochrome P450 1A2 (Homo sapiens, UniProt P05177); experiment: Inhibition of CYP1A2; type: ADME
# T1 sequence (P05177 whole entry): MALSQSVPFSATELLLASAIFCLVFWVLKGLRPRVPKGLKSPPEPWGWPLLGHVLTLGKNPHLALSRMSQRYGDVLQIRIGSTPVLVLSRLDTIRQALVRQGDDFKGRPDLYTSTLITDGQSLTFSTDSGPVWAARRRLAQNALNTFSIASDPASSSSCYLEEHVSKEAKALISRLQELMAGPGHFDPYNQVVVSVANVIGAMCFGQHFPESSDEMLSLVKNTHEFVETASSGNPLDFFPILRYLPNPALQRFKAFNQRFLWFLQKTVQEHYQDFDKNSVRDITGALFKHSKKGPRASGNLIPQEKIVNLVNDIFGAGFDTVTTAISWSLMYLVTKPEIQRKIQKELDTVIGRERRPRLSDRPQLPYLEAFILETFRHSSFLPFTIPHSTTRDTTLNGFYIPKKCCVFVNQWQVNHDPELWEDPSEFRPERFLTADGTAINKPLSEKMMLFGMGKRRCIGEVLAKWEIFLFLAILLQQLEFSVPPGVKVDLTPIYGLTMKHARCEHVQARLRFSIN
# Cytochrome P450 2C19 = Cytochrome P450 2C19 (Homo sapiens, UniProt P33261); experiment: Inhibition of CYP2C19; type: ADME
# Cytochrome P450 2C9 = Cytochrome P450 2C9 (Homo sapiens, UniProt P11712); experiment: Inhibition of CYP2C9; type: ADME
# Cytochrome P450 2D6 = Cytochrome P450 2D6 (Homo sapiens, UniProt P10635); experiment: Inhibition of CYP2D6; type: ADME
# Albumin = Albumin (Homo sapiens, UniProt P02768); experiment: Binding affinity to human serum albumin by fast gradient HPLC; type: ADME; details: isolated protein
# [2] = Protein binding in human plasma by ultrafiltration; type: ADME, cell-free; details: read-out: PPB (converted)
# [3] = Clearance in Sprague-Dawley rat at 1 mg/kg, iv and 1 mg/kg, po; type: ADME, organism-based; details: in vivo
# [4] = Volume of distribution at steady state in Sprague-Dawley rat at 1 mg/kg, iv and 1 mg/kg, po; type: ADME, organism-based; details: in vivo, read-out: Vdss
# [5] = Oral bioavailability in Sprague-Dawley rat at 1 mg/kg; type: ADME, organism-based; details: in vivo
# Glucocorticoid receptor [6] = molecular target: T2, Glucocorticoid receptor (Homo sapiens, UniProt P04150)
# T2 sequence (P04150 whole entry): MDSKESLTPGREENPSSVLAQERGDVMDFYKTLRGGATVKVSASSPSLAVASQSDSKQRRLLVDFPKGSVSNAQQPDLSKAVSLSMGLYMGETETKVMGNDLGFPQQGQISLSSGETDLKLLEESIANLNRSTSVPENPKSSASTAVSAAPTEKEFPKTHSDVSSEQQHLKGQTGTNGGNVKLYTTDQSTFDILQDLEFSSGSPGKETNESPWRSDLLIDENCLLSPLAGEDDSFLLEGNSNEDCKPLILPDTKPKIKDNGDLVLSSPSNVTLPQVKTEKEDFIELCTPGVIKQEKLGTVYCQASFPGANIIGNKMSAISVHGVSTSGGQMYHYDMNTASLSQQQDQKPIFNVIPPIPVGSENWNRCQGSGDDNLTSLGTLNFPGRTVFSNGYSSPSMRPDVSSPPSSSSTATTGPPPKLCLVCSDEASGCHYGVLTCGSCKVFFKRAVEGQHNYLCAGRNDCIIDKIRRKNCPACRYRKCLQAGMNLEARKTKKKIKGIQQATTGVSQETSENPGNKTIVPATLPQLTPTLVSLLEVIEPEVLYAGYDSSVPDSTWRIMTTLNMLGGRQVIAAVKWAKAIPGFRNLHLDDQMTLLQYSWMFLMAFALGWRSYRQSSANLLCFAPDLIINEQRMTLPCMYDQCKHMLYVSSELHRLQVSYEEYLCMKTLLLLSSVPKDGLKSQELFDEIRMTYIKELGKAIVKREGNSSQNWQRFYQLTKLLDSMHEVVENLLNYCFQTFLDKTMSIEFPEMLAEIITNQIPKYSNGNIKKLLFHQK
# Description: Displacement of fluorescent labelled Dexamethasone from glucocorticoid receptor
# Glucocorticoid receptor [7] = molecular target: T2, Glucocorticoid receptor; remark: listed apart in the source
# Description: Agonist activity at human glucocorticoid receptor in human A549 cells assessed as transcriptional activity by MMTV luciferase reporter gene assay
# Cytochrome P450 3A4 = Cytochrome P450 3A4 (Homo sapiens, UniProt P08684)
# Chain of Cytochrome P450 3A4 (P08684 whole entry): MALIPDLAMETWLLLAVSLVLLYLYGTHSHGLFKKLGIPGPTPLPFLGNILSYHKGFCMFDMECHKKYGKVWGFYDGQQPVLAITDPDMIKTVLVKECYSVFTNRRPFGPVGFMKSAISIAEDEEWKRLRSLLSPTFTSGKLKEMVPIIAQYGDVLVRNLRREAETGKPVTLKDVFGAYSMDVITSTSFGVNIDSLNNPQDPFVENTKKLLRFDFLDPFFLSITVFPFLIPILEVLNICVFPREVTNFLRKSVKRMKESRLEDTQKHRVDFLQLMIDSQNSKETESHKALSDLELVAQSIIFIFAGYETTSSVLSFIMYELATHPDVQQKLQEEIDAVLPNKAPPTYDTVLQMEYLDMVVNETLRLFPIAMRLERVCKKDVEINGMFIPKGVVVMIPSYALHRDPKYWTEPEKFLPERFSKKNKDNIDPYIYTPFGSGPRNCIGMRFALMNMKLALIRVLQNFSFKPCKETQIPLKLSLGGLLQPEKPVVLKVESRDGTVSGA
# Chain of Albumin (P02768 whole entry): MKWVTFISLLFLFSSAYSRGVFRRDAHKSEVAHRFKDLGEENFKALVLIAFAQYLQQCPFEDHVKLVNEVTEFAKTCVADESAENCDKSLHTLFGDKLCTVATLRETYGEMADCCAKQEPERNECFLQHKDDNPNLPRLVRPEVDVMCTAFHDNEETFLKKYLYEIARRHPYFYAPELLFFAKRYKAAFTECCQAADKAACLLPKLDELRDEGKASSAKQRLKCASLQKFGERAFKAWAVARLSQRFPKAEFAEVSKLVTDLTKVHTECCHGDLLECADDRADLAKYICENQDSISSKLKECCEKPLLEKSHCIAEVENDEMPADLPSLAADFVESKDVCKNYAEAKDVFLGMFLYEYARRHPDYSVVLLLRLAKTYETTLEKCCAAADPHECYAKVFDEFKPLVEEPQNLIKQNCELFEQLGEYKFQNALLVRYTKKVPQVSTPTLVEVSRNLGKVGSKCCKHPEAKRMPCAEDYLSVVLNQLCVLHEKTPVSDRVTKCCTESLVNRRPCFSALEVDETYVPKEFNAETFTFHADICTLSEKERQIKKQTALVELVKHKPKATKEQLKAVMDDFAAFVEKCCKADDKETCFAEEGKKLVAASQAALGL
# Chain of Cytochrome P450 2C9 (P11712 whole entry): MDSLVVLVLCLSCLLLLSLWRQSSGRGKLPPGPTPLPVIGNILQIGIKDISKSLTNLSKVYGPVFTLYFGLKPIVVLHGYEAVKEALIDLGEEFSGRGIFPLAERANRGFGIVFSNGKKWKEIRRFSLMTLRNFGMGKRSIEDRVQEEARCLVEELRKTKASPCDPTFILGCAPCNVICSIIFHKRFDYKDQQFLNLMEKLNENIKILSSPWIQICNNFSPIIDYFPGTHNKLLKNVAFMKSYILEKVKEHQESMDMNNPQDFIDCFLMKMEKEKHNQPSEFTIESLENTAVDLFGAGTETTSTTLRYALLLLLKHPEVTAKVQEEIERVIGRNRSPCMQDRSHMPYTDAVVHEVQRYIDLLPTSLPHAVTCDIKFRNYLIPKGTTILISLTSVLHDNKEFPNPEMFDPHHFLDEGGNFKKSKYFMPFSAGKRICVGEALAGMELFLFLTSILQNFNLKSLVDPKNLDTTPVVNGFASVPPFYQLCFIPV
# Chain of Cytochrome P450 2C19 (P33261 whole entry): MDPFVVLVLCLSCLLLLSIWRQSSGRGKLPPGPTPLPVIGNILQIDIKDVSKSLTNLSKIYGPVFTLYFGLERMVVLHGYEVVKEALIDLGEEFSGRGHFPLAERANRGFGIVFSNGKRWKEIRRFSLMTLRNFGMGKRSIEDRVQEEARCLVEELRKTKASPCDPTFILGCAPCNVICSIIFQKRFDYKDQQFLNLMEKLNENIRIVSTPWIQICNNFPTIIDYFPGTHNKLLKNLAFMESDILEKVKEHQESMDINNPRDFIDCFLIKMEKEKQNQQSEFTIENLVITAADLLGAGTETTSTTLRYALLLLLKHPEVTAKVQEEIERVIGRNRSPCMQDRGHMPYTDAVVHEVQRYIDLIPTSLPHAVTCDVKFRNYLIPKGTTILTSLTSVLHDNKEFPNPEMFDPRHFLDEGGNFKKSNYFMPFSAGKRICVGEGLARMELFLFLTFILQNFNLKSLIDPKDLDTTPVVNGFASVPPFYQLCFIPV
# Chain of Cytochrome P450 2D6 (P10635 whole entry): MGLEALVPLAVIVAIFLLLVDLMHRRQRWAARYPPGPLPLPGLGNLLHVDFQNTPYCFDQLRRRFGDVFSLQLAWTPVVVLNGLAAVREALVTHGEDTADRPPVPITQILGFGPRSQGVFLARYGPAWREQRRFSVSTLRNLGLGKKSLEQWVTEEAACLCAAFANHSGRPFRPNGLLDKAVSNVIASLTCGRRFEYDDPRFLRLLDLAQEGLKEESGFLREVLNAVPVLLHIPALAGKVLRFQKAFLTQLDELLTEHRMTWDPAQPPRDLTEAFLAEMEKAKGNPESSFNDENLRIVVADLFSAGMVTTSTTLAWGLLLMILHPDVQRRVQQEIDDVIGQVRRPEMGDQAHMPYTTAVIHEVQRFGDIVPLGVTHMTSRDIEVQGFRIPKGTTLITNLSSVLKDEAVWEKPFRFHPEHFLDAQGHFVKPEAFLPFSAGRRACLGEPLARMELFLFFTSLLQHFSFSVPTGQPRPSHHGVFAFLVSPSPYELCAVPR
IC50 [1] [µM],IC50 (Cytochrome P450 1A2) [µM],IC50 (Cytochrome P450 2C19) [µM],IC50 (Cytochrome P450 2C9) [µM],IC50 (Cytochrome P450 2D6) [µM],Activity (Albumin) [%],fraction unbound [2],clearance [3] [mL/min/kg],Vd [4] [L/kg],bioavailability [5] [%],IC50 (Glucocorticoid receptor [6]) [µM],EC50 (Glucocorticoid receptor [7]) [µM],IC50 (Cytochrome P450 3A4) [µM],SMILES,Activity (A549) [%]
0.00251,100,18,8,74,93,0.03,27,2.8,36,0.00794,0.00794,2,CCN(CC(O)(CNC(=O)c1cnn(-c2ccc(F)cc2)c1N)C(F)(F)F)C(=O)c1c(F)cccc1F (stereo not drawn),104
0.02,100,40,13,100,81,0.32,8,0.9,44,0.0158,0.0501,76,Nc1c(C(=O)NCC(O)(CN(CCO)C(=O)c2c(F)cccc2F)C(F)(F)F)cnn1-c1ccc(F)cc1 (stereo not drawn),94
